Experimental data reported in patent US11919908B2, “Substituted pyrrolo[2,3-d]pyrimidine compounds as JAK2 V617F inhibitors” (Incyte Corporation, priority 2020, dated 2024).

Legend:
[1] = molecular target: T1, pseudo-kinase domain (JH2) of human V617F mutant JAK2 (Homo sapiens, UniProt O60674, F794H/V617F/W659A/W777A); experiment: JAK2 LanthaScreen JH2-V617F Binding Assay; settings: 50 nM Fluorescent JAK2-JH2 Tracer, 1 hour at 25° C.
T1 construct: pseudo-kinase domain (JH2, amino-acids 536-812 with 3 surface mutations W659A, W777A, F794H); His (C); purchased BPS Bioscience 79498; host or cells: baculovirus expression system
T1 sequence (O60674 536-812 V617F/W659A/W777A/F794H): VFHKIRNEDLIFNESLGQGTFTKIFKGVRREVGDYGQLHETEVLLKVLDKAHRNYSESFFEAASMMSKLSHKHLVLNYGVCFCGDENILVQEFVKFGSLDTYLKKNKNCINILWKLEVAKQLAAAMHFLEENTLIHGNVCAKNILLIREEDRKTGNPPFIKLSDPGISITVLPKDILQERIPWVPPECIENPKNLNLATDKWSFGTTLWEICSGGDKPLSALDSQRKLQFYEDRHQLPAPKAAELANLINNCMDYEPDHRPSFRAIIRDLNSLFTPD
Description: (§1) Example C. JAK2 LanthaScreen JH2-V617F Binding Assay JAK2 JH2-V617F binding assay utilizes pseudo-kinase domain (JH2, amino-acids 536-812 with 3 surface mutations […]) of human V617F mutant JAK2 expressed as C-terminal His-Avi-tagged, biotinylated protein in a baculovirus expression system (BPS Bioscience, Catalog #79498). The assay was conducted in black 384-well polystyrene plates in a final reaction volume of 20 μL. JAK2 JH2-V617F (0.26 nM) was incubated with compounds (100 nL serially diluted in DMSO) in the presence of 50 nM Fluorescent JAK2-JH2 Tracer (MedChem Express Catalog #HY-102055) and 0.25 nM Streptavidin-Tb cryptate (Cisbio Part #610SATLB) in assay buffer (50 mM Tris, pH=7.5, 10 mM MgCl2, 0.01% Brij-35, 0.1% BSA, 1 mM EGTA, 5% Glycerol and 5 mM DTT). Non-specific binding was accessed in the presence of 2 mM ATP. After incubation for 1 hour at 25° C., LanthaScreen signals were read on a PHERAstar FS plate reader (BMG LABTECH). Data was analyzed with IDBS XLfit and GraphPad Prism 5.0 software using a four parameter dose response curve to determine IC50 for each compound.

[2] = molecular target: T2, pseudo-kinase domain (JH2) of human Wild Type JAK2 (Homo sapiens, UniProt O60674, F794H/W659A/W777A); experiment: JAK2 LanthaScreen JH2-WT Binding Assay; settings: 50 nM Fluorescent JAK2-JH2 Tracer, 1 hour at 25° C.
T2 construct: pseudo-kinase domain (JH2, amino-acids 536-812 with 3 surface mutations W659A, W777A, F794H); His (C); purchased BPS Bioscience 79463; host or cells: baculovirus expression system
T2 sequence (O60674 536-812 W659A/W777A/F794H): as the sequence (O60674 536-812 V617F/W659A/W777A/F794H) above, with F82V counted along it
Description: as §1, with “Example B.” for “Example C.”, “LanthaScreen JH2-WT” for “LanthaScreen JH2-V617F”, “JAK2 JH2-WT” for “JAK2 JH2-V617F”, “human Wild Type” for “human V617F mutant”, “Catalog #79463).” for “Catalog #79498).”, “JAK2 JH2-WT (0.145” for “JAK2 JH2-V617F (0.26”

[3] = molecular target: T3, catalytic domain (JH1) of human JAK2 (Homo sapiens, UniProt O60674); experiment: JAK2 LanthaScreen JH1 Binding Assay; settings: 50 nM Fluorescent JAK2-JH1 Tracer, 2 hours at 25° C.
T3 construct: catalytic domain (JH1, amino acids 826-1132) of human JAK2; FLAG (N); purchased Carna Biosciences 08-445-20N; host or cells: baculovirus expression system
T3 sequence (O60674 826-1132): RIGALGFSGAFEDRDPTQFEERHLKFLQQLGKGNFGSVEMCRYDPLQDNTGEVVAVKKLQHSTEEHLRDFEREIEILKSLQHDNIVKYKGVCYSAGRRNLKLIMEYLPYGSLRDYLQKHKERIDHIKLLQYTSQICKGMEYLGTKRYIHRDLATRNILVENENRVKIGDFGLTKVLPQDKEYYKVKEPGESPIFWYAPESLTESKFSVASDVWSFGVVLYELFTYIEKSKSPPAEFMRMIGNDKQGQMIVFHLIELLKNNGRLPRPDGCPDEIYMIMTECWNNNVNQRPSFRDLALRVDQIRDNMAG
Description: Example A. JAK2 LanthaScreen […] Binding Assay JAK2 JH1 binding assay utilizes catalytic domain (JH1, amino acids 826-1132) of human JAK2 expressed as N-terminal FLAG-tagged, biotinylated protein in a baculovirus expression system (Carna Biosciences, Product #08-445-20N). The assay was conducted in black 384-well polystyrene plates in a final reaction volume of 20 μL. JAK2 JH1 (1.5 nM) was incubated with compounds (100 nL serially diluted in DMSO) in the presence of 50 nM Fluorescent JAK2-JH1 Tracer and 0.5 nM Streptavidin-Tb cryptate (Cisbio Part #610SATLB) in assay buffer (50 mM Tris, pH=7.5, 10 mM MgCl2, 0.01% Brij-35, 0.1% BSA, 1 mM EGTA, 5% Glycerol and 5 mM DTT). Non-specific binding was accessed in the presence of 2 mM ATP. After incubation for 2 hours at 25° C., LanthaScreen signals were read on a PHERAstar FS plate reader (BMG LABTECH). Data was analyzed with IDBS XLfit and GraphPad Prism 5.0 software using a four parameter dose response curve to determine IC50 for each compound.

Molecule	IC50 [1] [nM]	IC50 [2] [nM]	IC50 [3] [nM]
Nc1nc2[nH]c(-c3ccccc3)c(-c3ccccc3OC(F)F)c2c(=O)[nH]1 [Example 1, 2-Amino-5-(2-(difluoromethoxy)phenyl)-6-phenyl-3,7-dihydro-4H-pyrrolo[2,3-d]pyrimidin-4-one]	> 2500	> 2500	> 2500
CN(C)S(=O)(=O)c1ccc(-c2[nH]c3nc(N)[nH]c(=O)c3c2-c2ccccc2Cl)cc1 [Example 5, 4-(2-Amino-5-(2-chlorophenyl)-4-oxo-4,7-dihydro-3H-pyrrolo[2,3-d]pyrimidin-6-yl)-N,N-dimethylbenzene sulfonamide]	1000 to 2500	1000 to 2500	> 2500
CC(C)c1cccc(-c2c(-c3ccc(S(=O)(=O)N(C)C)cc3)[nH]c3nc(N)[nH]c(=O)c23)c1 [Example 6, 4-(2-Amino-5-(3-isopropylphenyl)-4-oxo-4,7-dihydro-3H-pyrrolo [2,3-d]pyrimidin-6-yl)-N,N-dimethylbenzene sulfonamide]	> 2500	> 2500	> 2500
CN1CCC(c2ccc(-c3c(-c4ccc(S(=O)(=O)N(C)C)cc4)[nH]c4nc(N)[nH]c(=O)c34)cc2)CC1 [Example 8, 4-(2-Amino-5-(4-(1-methylpiperidin-4-yl)phenyl)-4-oxo-4,7-dihydro-3H-pyrrolo[2,3-d]pyrimidin-6-yl)-N,N-dimethylbenzene sulfonamide]	1000 to 2500	1000 to 2500	> 2500
CN(C)S(=O)(=O)c1ccc(-c2[nH]c3nc(N)[nH]c(=O)c3c2-c2cccc3c2OC(F)(F)O3)cc1 [Example 12, 4-(2-Amino-5-(2,2-difluorobenzo[d] [1,3]dioxol-4-yl)-4-oxo-4,7-dihydro-3H-pyrrolo[2,3-d]pyrimidin-6-yl)-N,N-dimethylbenzene sulfonamide]	> 2500	> 2500	1000 to 2500
CN(C)S(=O)(=O)c1ccc(-c2[nH]c3nc(N)[nH]c(=O)c3c2-c2cccc(C(N)=O)c2)cc1 [Example 14, 3-(2-Amino-6-(4-(N,N-dimethylsulfamoyl)phenyl)-4-oxo-4,7-dihydro-3H-pyrrolo [2,3-d]pyrimidin-5-yl)benzamide]	1000 to 2500	1000 to 2500	1000 to 2500
CN(C)S(=O)(=O)c1ccc(-c2[nH]c3nc(N)[nH]c(=O)c3c2-c2ccccc2CC#N)cc1 [Example 15, 4-(2-Amino-5-(2-(cyanomethyl)phenyl)-4-oxo-4,7-dihydro-3H-pyrrolo[2,3-d]pyrimidin-6-yl)-N,N-dimethylbenzene sulfonamide]	> 2500	> 2500	> 2500
CN(C)S(=O)(=O)c1ccc(-c2[nH]c3nc(N)[nH]c(=O)c3c2-c2cccc3c2cnn3C)cc1 [Example 16, 4-(2-Amino-5-(1-methyl-1H-indazol-4-yl)-4-oxo-4,7-dihydro-3H-pyrrolo[2,3-d]pyrimidin-6-yl)-N,N-dimethylbenzene sulfonamide]	> 2500	> 2500	> 2500
CN(C)S(=O)(=O)c1ccc(-c2[nH]c3nc(N)[nH]c(=O)c3c2-c2ccccc2C#N)cc1 [Example 18, 4-(2-Amino-5-(2-cyano-phenyl)-4-oxo-4,7-dihydro-3H-pyrrolo[2,3-d]pyrimidin-6-yl)-N,N-dimethylbenzene sulfonamide]	> 2500	> 2500	> 2500

Continued, values first:

IC50 [1] [nM]	IC50 [2] [nM]	IC50 [3] [nM]	Molecule
500 to 1000	500 to 1000	1000 to 2500	4-(2-Amino-5- (2,3-difluorobenzofuran-6- yl)-4-oxo-4,7-dihydro-3H- pyrrolo[2,3-d]pyrimidin-6- yl)-N,N-dimethylbenzene sulfonamide [Example 26]
500 to 1000	500 to 1000	1000 to 2500	Cc1cccc(-c2c(-c3ccc(S(=O)(=O)N(C)C)cc3)[nH]c3nc(N)[nH]c(=O)c23)c1 [Example 2, 4-(2-Amino-4-oxo-5-(3-tolyl)-4,7-dihydro-3H-pyrrolo[2,3-d]pyrimidin-6-yl)-N,N-dimethylbenzenesulfonamide]
100 to 500	100 to 500	> 2500	CN(C)S(=O)(=O)c1ccc(-c2[nH]c3nc(N)[nH]c(=O)c3c2-c2cccc3ccoc23)cc1 [Example 3, 4-(2-Amino-5-(benzofuran-7-yl)-4-oxo-4,7-dihydro-3H-pyrrolo[2,3-d]pyrimidin-6-yl)-N,N-dimethylbenzenesulfonamide]
500 to 1000	500 to 1000	1000 to 2500	CN(C)S(=O)(=O)c1ccc(-c2[nH]c3nc(N)[nH]c(=O)c3c2-c2cccc(CO)c2)cc1 [Example 4, 4-(2-Amino-5-(3-(hydroxymethyl)phenyl)-4-oxo-4,7-dihydro-3H-pyrrolo [2,3-d]pyrimidin-6-yl)-N,N-dimethyl-benzene sulfonamide]
500 to 1000	500 to 1000	> 2500	CN(C)S(=O)(=O)c1ccc(-c2[nH]c3nc(N)[nH]c(=O)c3c2-c2cccc3c2OCCO3)cc1 [Example 7, 4-(2-Amino-5-(2,3-dihydrobenzo[b][1,4]dioxin-5-yl)-4-oxo-4,7-dihydro-3H-pyrrolo [2,3-d]pyrimidin-6-yl)-N,N-dimethylbenzene sulfonamide]
500 to 1000	500 to 1000	1000 to 2500	CN(C)S(=O)(=O)c1ccc(-c2[nH]c3nc(N)[nH]c(=O)c3c2-c2ccc(C(F)F)cc2)cc1 [Example 9, 4-(2-Amino-5-(4-(difluoromethyl)phenyl)-4-oxo-4,7-dihydro-3H-pyrrolo [2,3-d]pyrimidin-6-yl)-N,N-dimethylbenzene sulfonamide]
500 to 1000	500 to 1000	> 2500	CN(C)S(=O)(=O)c1ccc(-c2[nH]c3nc(N)[nH]c(=O)c3c2-c2cccc3c2OCCC3)cc1 [Example 10, 4-(2-Amino-5-(chroman-8-yl)-4-oxo-4,7-dihydro-3H-pyrrolo[2,3-d]pyrimidin-6-yl)-N,N-dimethylbenzene sulfonamide]
100 to 500	100 to 500	1000 to 2500	CNC(=O)c1ccc(-c2c(-c3ccc(S(=O)(=O)N(C)C)cc3)[nH]c3nc(N)[nH]c(=O)c23)cc1 [Example 11, 4-(2-Amino-6-(4-(N,N-dimethyl-sulfamoyl)phenyl)-4-oxo-4,7-dihydro-3H-pyrrolo[2,3-d]pyrimidin-5-yl)-N-methylbenzamide]
100 to 500	100 to 500	1000 to 2500	CN(C)S(=O)(=O)c1ccc(-c2[nH]c3nc(N)[nH]c(=O)c3c2-c2ccc(S(C)(=O)=O)cc2)cc1 [Example 13, 4-(2-Amino-5-(4-(methylsulfonyl)phenyl)-4-oxo-4,7-dihydro-3H-pyrrolo[2,3-d]pyrimidin-6-yl)-N,N-dimethylbenzene sulfonamide]
500 to 1000	500 to 1000	100 to 500	CN(C)S(=O)(=O)c1ccc(-c2[nH]c3nc(N)[nH]c(=O)c3c2-c2cccc(C#N)c2)cc1 [Example 17, 4-(2-Amino-5-(3-cyanophenyl)-4-oxo-4,7-dihydro-3H-pyrrolo [2,3-d]pyrimidin-6-yl)-N,N-dimethyl-benzene sulfonamide]
